The term Dmax denotes the greatest extent of degradation seen. Usually DC50 stands for the concentration at which degradation of the target reaches its halfway point. The low end stands for a more potent degrader, the high end for a less potent degrader.

Each structure is given as a SMILES string. Where only a bound is given, the exact number is not on record here.

The target in the test is T1, AsPC-1 HiBiT-KRASG12D (Homo sapiens, UniProt P01116, G12D).
T1 construct: insert the HiBiT tag onto the N-terminus of one or more of the endogenous KRAS alleles; endogenous in cells; host or cells: AsPC-1 (ATCC CRL-1682), CRISPR-Cas9 knock-in clone, one tagged allele
T1 sequence (P01116 1-188 isoform P01116-2 G12D): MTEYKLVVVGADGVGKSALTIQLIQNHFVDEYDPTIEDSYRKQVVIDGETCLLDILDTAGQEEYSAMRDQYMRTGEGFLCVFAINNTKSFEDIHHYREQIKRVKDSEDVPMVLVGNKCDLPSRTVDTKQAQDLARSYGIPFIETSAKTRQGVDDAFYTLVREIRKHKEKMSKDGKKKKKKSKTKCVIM
Nature of the test: HiBiT degradation assay (G12D), AsPC-1 HiBiT-KRASG12D cells. To be noted: 24 hours treatment; for Dmax: ASPC1, AsPC-1 HiBiT-KRASG12D cells, maximum degradation observed; for DC50: AsPC-1 HiBiT-KRASG12D cells, HiBiT luminescence. The format is cell-based. An excerpt: Reagents. […] SW1573 cells are homozygous for the G12C mutation in KRAS, AsPC-1 cells are homozygous for the G12D mutation, and SW620 cells are homozygous for the G12V mutation. […] For degradation assays, 384 well plates were used. Alamar blue was purchased from ThermoFisher scientific (A50101) and used according to manufacturer instructions. The Nano-Glo® HiBiT Lytic Detection System and Nano-Glo® HiBiT Blotting System were purchased from Promega (#N3050 and #N2410) and used according to manufacturer instructions.
To create the AsPC-1 HiBiT-KRASG12D cell line, CRISPR-Cas9 was used to insert the HiBiT tag onto the N-terminus of one or more of the endogenous KRAS alleles. […] After knock-in of the tag, individual clones were isolated by single cell dilution and screened for HiBiT insertion by PCR. […] This clone was used in further studies.
HiBiT degradation assays (G12C and G12D). […] All assays were performed in triplicate. Cells were treated with compounds for 24 hours at 37° C. in an incubator containing 5% CO2. Following treatment, alamar blue was used to determine if any compounds led to a loss in cell viability after 24 hours. The 10× alamar blue reagent was added to a final concentration of 1× as recommended by the manufacturer and cells were returned to the incubator for 4 hours. Plates were then allowed to equilibrate to room temperature and fluorescence was measured using a Perkin-Elmer EnVision. After completion of the fluorescence read, the liquid from each well was removed and the cells were washed with PBS. The Nano-Glo® HiBiT detection reagent was prepared according to the manufacturer's instructions and added to each well after the PBS wash was removed. Following incubation at room temperature for 45 minutes, the luminescence was read using the ultra-sensitive luminescence aperture on the Envision instrument.
Data analysis. Fluorescence values from the alamar blue treatment were normalized to the DMSO-only control for each compound titration.

`CCc1cccc2cc(O)cc(-c3ncc4c(N5CC6CCC(C5)N6)nc(OCCN5CC[C@@H]6CN(c7cc([C@H](C(=O)N8C[C@H](O)C[C@H]8C(=O)N[C@@H](C)c8ccc(-c9scnc9C)cc8)C(C)C)on7)C[C@@H]6C5)nc4c3F)c12` (relative stereo) [Compound 71, (2S,4R)-1-[(2R*)-2-{3-[(3aR**,7aR***)-5-{2-[(4-{3,8-diazabicyclo[3.2.1]octan-3-yl}-7-(8-ethyl-3-hydroxynaphthalen-1-yl)-8-fluoropyrido[4,3-d]pyrimidin-2-yl)oxy]ethyl}-octahydro-1H-pyrrolo[3,4-c]pyridin-2-yl]-1,2-oxazol-5-yl}-3-methylbutanoyl]-4-hydroxy-N-[(1S)-1-[4-(4-methyl-1,3-thiazol-5-yl)phenyl]ethyl]pyrrolidine-2-carboxamide] gave a Dmax of 80 to 100% and a DC50 below 600 nM.

Compound `CCc1cccc2cc(O)cc(-c3ncc4c(N5CC6CCC(C5)N6)nc(OCCN5CC[C@@H]6CN(c7cc([C@@H](C(=O)N8C[C@H](O)C[C@H]8C(=O)N[C@@H](C)c8ccc(-c9scnc9C)cc8)C(C)C)on7)C[C@@H]6C5)nc4c3F)c12` (relative stereo) [Compound 72, (2S,4R)-1-[(2R*)-2-{3-[(3aR**,7aR***)-5-{2-[(4-{3,8-diazabicyclo[3.2.1]octan-3-yl}-7-(8-ethyl-3-hydroxynaphthalen-1-yl)-8-fluoropyrido[4,3-d]pyrimidin-2-yl)oxy]ethyl}-octahydro-1H-pyrrolo[3,4-c]pyridin-2-yl]-1,2-oxazol-5-yl}-3-methylbutanoyl]-4-hydroxy-N-[(1S)-1-[4-(4-methyl-1,3-thiazol-5-yl)phenyl]ethyl]pyrrolidine-2-carboxamide] came in with a Dmax below 20% and a DC50 above 3000 nM.

For the compound `CCc1cccc2cc(O)cc(-c3ncc4c(N5CC6CCC(C5)N6)nc(OCCN5CC[C@H]6[C@H](CCN6c6cc([C@H](C(=O)N7C[C@H](O)C[C@H]7C(=O)N[C@@H](C)c7ccc(-c8scnc8C)cc7)C(C)C)on6)C5)nc4c3F)c12` (relative stereo) [Compound 73, (2S,4R)-1-[(2R*)-2-{3-[(3aR**,7aR***)-5-{2-[(4-{3,8-diazabicyclo[3.2.1]octan-3-yl}-7-(8-ethyl-3-hydroxynaphthalen-1-yl)-8-fluoropyrido[4,3-d]pyrimidin-2-yl)oxy]ethyl}-octahydro-1H-pyrrolo[3,2-c]pyridin-1-yl]-1,2-oxazol-5-yl}-3-methylbutanoyl]-4-hydroxy-N-[(1S)-1-[4-(4-methyl-1,3-thiazol-5-yl)phenyl]ethyl]pyrrolidine-2-carboxamide], the Dmax was in the range of 80 to 100% and the DC50 is below 600 nM.

`CCc1cccc2cc(O)cc(-c3ncc4c(N5CC6CCC(C5)N6)nc(OCCN5CC[C@@H]6[C@@H](CCN6c6cc([C@H](C(=O)N7C[C@H](O)C[C@H]7C(=O)N[C@@H](C)c7ccc(-c8scnc8C)cc7)C(C)C)on6)C5)nc4c3F)c12` (relative stereo) [Compound 74, (2S,4R)-1-[(2R*)-2-{3-[(3aR**,7aR***)-5-{2-[(4-{3,8-diazabicyclo[3.2.1]octan-3-yl}-7-(8-ethyl-3-hydroxynaphthalen-1-yl)-8-fluoropyrido[4,3-d]pyrimidin-2-yl)oxy]ethyl}-octahydro-1H-pyrrolo[3,2-c]pyridin-1-yl]-1,2-oxazol-5-yl}-3-methylbutanoyl]-4-hydroxy-N-[(1S)-1-[4-(4-methyl-1,3-thiazol-5-yl)phenyl]ethyl]pyrrolidine-2-carboxamide] displayed a Dmax of 80 to 100% and a DC50 below 600 nM.

Compound `CCc1cccc2cc(O)cc(-c3ncc4c(N5CC6CCC(C5)N6)nc(OCCN5CC[C@H]6[C@H](CCN6c6cc([C@@H](C(=O)N7C[C@H](O)C[C@H]7C(=O)N[C@@H](C)c7ccc(-c8scnc8C)cc7)C(C)C)on6)C5)nc4c3F)c12` (relative stereo) [Compound 75, (2S,4R)-1-[(2R*)-2-{3-[(3aR**,7aR***)-5-{2-[(4-{3,8-diazabicyclo[3.2.1]octan-3-yl}-7-(8-ethyl-3-hydroxynaphthalen-1-yl)-8-fluoropyrido[4,3-d]pyrimidin-2-yl)oxy]ethyl}-octahydro-1H-pyrrolo[3,2-c]pyridin-1-yl]-1,2-oxazol-5-yl}-3-methylbutanoyl]-4-hydroxy-N-[(1S)-1-[4-(4-methyl-1,3-thiazol-5-yl)phenyl]ethyl]pyrrolidine-2-carboxamide] had a Dmax of 60 to 80% and a DC50 of 1000 to 3000 nM.

`CCc1cccc2cc(O)cc(-c3ncc4c(N5CC6CCC(C5)N6)nc(OCCN5CC[C@@H]6[C@@H](CCN6c6cc([C@@H](C(=O)N7C[C@H](O)C[C@H]7C(=O)N[C@@H](C)c7ccc(-c8scnc8C)cc7)C(C)C)on6)C5)nc4c3F)c12` (relative stereo) [Compound 76, (2S,4R)-1-[(2R*)-2-{3-[(3aR**,7aR***)-5-{2-[(4-{3,8-diazabicyclo[3.2.1]octan-3-yl}-7-(8-ethyl-3-hydroxynaphthalen-1-yl)-8-fluoropyrido[4,3-d]pyrimidin-2-yl)oxy]ethyl}-octahydro-1H-pyrrolo[3,2-c]pyridin-1-yl]-1,2-oxazol-5-yl}-3-methylbutanoyl]-4-hydroxy-N-[(1S)-1-[4-(4-methyl-1,3-thiazol-5-yl)phenyl]ethyl]pyrrolidine-2-carboxamide]: the Dmax fell in the range of 20 to 60% and the 50% degradation concentration (DC50) was 1000 to 3000 nM.

As to `CCc1cccc2cc(O)cc(-c3ncc4c(N5CC6CCC(C5)N6)nc(OCCN5C[C@@H]6CN(c7cc([C@H](C(=O)N8C[C@H](O)C[C@H]8C(=O)N[C@@H](C)c8ccc(-c9scnc9C)cc8)C(C)C)on7)C[C@H]6C5)nc4c3F)c12` (relative stereo) [Compound 77, (2S,4R)-1-[(2R*)-2-{3-[(3aR,6aR)-5-{2-[(4-{3,8-diazabicyclo[3.2.1]octan-3-yl}-7-(8-ethyl-3-hydroxynaphthalen-1-yl)-8-fluoropyrido[4,3-d]pyrimidin-2-yl)oxy]ethyl}-octahydropyrrolo[3,4-c]pyrrol-2-yl]-1,2-oxazol-5-yl}-3-methylbutanoyl]-4-hydroxy-N-[(1S)-1-[4-(4-methyl-1,3-thiazol-5-yl)phenyl]ethyl]pyrrolidine-2-carboxamide], the Dmax was 80 to 100% and the DC50 is below 600 nM.

On to `CCc1cccc2cc(O)cc(-c3ncc4c(N5CC6CCC(C5)N6)nc(OCCN5C[C@@H]6CN(c7cc([C@@H](C(=O)N8C[C@H](O)C[C@H]8C(=O)N[C@@H](C)c8ccc(-c9scnc9C)cc8)C(C)C)on7)C[C@H]6C5)nc4c3F)c12` (relative stereo) [Compound 78, (2S,4R)-1-[(2R*)-2-{3-[(3aR,6aR)-5-{2-[(4-{3,8-diazabicyclo[3.2.1]octan-3-yl}-7-(8-ethyl-3-hydroxynaphthalen-1-yl)-8-fluoropyrido[4,3-d]pyrimidin-2-yl)oxy]ethyl}-octahydropyrrolo[3,4-c]pyrrol-2-yl]-1,2-oxazol-5-yl}-3-methylbutanoyl]-4-hydroxy-N-[(1S)-1-[4-(4-methyl-1,3-thiazol-5-yl)phenyl]ethyl]pyrrolidine-2-carboxamide], for which the Dmax was 20 to 60% and the DC50 is 1000 to 3000 nM.

`CCc1cccc2cc(O)cc(-c3ncc4c(N5CC6CCC(C5)N6)nc(OCCN5C[C@@H]6CN(c7cc(C(C(=O)N8C[C@H](O)C[C@H]8C(=O)N[C@@H](C)c8ccc(-c9scnc9C)cc8)C(C)C)on7)C[C@@H]6C5)nc4c3F)c12` (relative stereo) [Compound 80, (2S,4R)-1-[(2R*)-2-{3-[(3aR,6aS)-5-{2-[(4-{3,8-diazabicyclo[3.2.1]octan-3-yl}-7-(8-ethyl-3-hydroxynaphthalen-1-yl)-8-fluoropyrido[4,3-d]pyrimidin-2-yl)oxy]ethyl}-octahydropyrrolo[3,4-c]pyrrol-2-yl]-1,2-oxazol-5-yl}-3-methylbutanoyl]-4-hydroxy-N-[(1S)-1-[4-(4-methyl-1,3-thiazol-5-yl)phenyl]ethyl]pyrrolidine-2-carboxamide] registered a Dmax of 80 to 100% and a DC50 below 600 nM.

The compound `CCc1cccc2cc(O)cc(-c3ncc4c(N5CC6CCC(C5)N6)nc(OCCN5CCC(CC6CN(c7cc(C(C(=O)N8C[C@H](O)C[C@H]8C(=O)N[C@@H](C)c8ccc(-c9scnc9C)cc8)C(C)C)on7)C6)CC5)nc4c3F)c12` (relative stereo) [Compound 82, (2S,4R)-1-[(2R*)-2-(3-{3-[(1-{2-[(4-{3,8-diazabicyclo[3.2.1]octan-3-yl}-7-(8-ethyl-3-hydroxynaphthalen-1-yl)-8-fluoropyrido[4,3-d]pyrimidin-2-yl)oxy]ethyl}piperidin-4-yl)methyl]azetidin-1-yl}-1,2-oxazol-5-yl)-3-methylbutanoyl]-4-hydroxy-N-[(1S)-1-[4-(4-methyl-1,3-thiazol-5-yl)phenyl]ethyl]pyrrolidine-2-carboxamide] came in with a Dmax of 20 to 60% and a DC50 of 600 to 1000 nM.

The values above are taken from US20250206732A1, “COMPOUNDS AND METHODS FOR THE TARGETED DEGRADATION OF KRAS” (Arvinas Operations, Inc., priority 2022, published 2025).
